From publication PMC4311633, “Effects of RAMEA-complexed polyunsaturated fatty acids on the response of human dendritic cells to inflammatory signals” (Beilstein Journal of Organic Chemistry, 2014)

What was measured:
[1] = system: CD1a cell surface protein in moDC; test: CD1a cell surface expression in moDC by flow cytometry; format: cell-based, human; conditions: 20 µM/mL, resting, LPS- or Poly(I:C)-activated moDC; for Expression of CD1a protein on the surface of moDC: RAMEA-complexed PUFA compared with DMSO/ethanol form
Protocol: (§1) Peripheral blood mononuclear cells (PBMC) were separated from buffy coats by Ficoll gradient centrifugation (Amersham Biosciences, Uppsala, Sweden). Monocytes were isolated by positive selection using magnetic cell separation with anti-CD14-conjugated microbeads (Miltenyi Biotech, Bergisch Gladbach, Germany). […] The purified cells were cultured at a density of 10^6 cells/mL in serum free AIMV medium supplemented with 80 ng/mL granulocyte-macrophage colony stimulating factor (GM-CSF) purchased from Gentaur and 50 ng/mL IL-4 from Peprotech.
(§2) On day 0 and day 2 of the in vitro moDC differentiation process the cultures were supplemented with GM-CSF and IL-4 and were treated with 20 µM/mL n−3 PUFAs. On day 5 the fully differentiated cells were activated by 500 ng/mL bacterial lipopolysaccharide (LPS) (Sigma Aldrich) or by 500 ng/mL Poly(I:C) (InvivoGen, San Diego, CA, USA) or were left untreated. The negative controls were treated by DMSO or by 20 µM/mL RAMEA. The positive controls were stimulated by LPS or Poly(I:C) in the absence of PUFAs.
Phenotyping of moDC was performed by flow cytometry using anti-CD83-PE and anti-CD1a-FITC specific antibodes from BioLegend at the protein level (San Diego, CA, USA). Fluorescence intensities were measured with FACSCalibur (BD Biosciences). Data analysis was performed with the FlowJo software (Tree Star, Ashland, OR, USA).

[2] = system: GPR120 receptor expression in moDC; test: GPR120 expression in moDC by Q-PCR; format: cell-based, human; conditions: 20 µM/mL; LPS-activated moDC; Q-PCR normalized to cyclophilin
Protocol: as §1, §2
GPR120 expression levels were measured by real-time quantitative PCR (Q-PCR). […] Q-PCR was performed using the ABI StepOne Real Time PCR System (Applied Biosystems) and cycle threshold values were determined by using the StepOne v2.1 Software (Applied Biosystems).

[3] = Solubility in 20% randomly methylated CD solutions and complexation efficiency, ALA; format: physicochemical; conditions: calculated from solubility data in 20% CD solution, 24 h, rt
Protocol: (§3) The complexation efficiency calculated from the solubility data characterize the affinity of the various methylated CDs toward the lipids studied (Table 1). The complex association constants were not calculated because the intrinsic solubility in water is so low that it cannot be determined with a precision sufficient for the calculations.
(§4) The solubility of fatty acids in CD solutions was determined by adding PUFAs to the aqueous solutions at 20% RAMEA, RAMEB or RAMEG, respectively, stirring for 24 h at rt and then analyzed the filtered saturated solutions by HPLC using Hypersil ODS column (4 × 125 mm, particle size 5 μm) with guard column, mobile phase: acetonitrile/water 75:25 with 0.15% concentrated phosphoric acid, 2.0 mL/min flow rate, at 40 °C and UV detection at 210 nm.

[4] = Solubility in 20% randomly methylated CD solutions and complexation efficiency, cholesterol; format: physicochemical; conditions: for Solubilization of cholesterol: aqueous solution of 20% CD vs distilled water; for Complexation efficiency for Cholesterol: calculated from solubility data in 20% CD solution, 24 h, rt
[5] = Solubility in 20% randomly methylated CD solutions and complexation efficiency, DHA; format: physicochemical; conditions: calculated from solubility data in 20% CD solution, 24 h, rt
Protocol: as §3, §4

[6] = Solubilization of n−3 PUFAs in aqueous methylated CD solutions; format: physicochemical; conditions: aqueous solution of 20% CD vs distilled water
Protocol: Cyclodextrins (CDs) are efficient solubilizers of lipids. […] The solubilizing effect of RAMEA in the case of n−3 PUFAs seems to be high enough for using it as a solubilizer without the risk of interaction with cholesterol-rich lipid rafts in the cell membrane.
as §4

[7] = Solubility in 20% randomly methylated CD solutions and complexation efficiency, EPA; format: physicochemical; conditions: calculated from solubility data in 20% CD solution, 24 h, rt
Protocol: as §3, §4

GPR120 receptor expression [2] | Complexation efficiency for ALA [3] | Complexation efficiency for Cholesterol [4] | Complexation efficiency for DHA [5] | Solubilization of n−3 PUFAs [6] | Complexation efficiency for EPA [7] | Molecule | Proportion of inflammatory CD1a+ cells ([1]; PUFA dissolved in DMSO/ethanol) | Expression of CD1a protein on the surface of moDC [1] | Solubilization of cholesterol [4]
induced preferentially by DHA |  |  |  |  |  | CC/C=C\C/C=C\C/C=C\C/C=C\C/C=C\C/C=C\CCC(=O)O [DHA, docosahexaenoic acid] | more efficient in decreasing the proportion of inflammatory CD1a^+ cells, than ALA or EPA | solubilization method did not influence the effects | 
 | 0.25 | <0.001 | 0.10 | solubilized | 0.21 | randomly methylated α-cyclodextrin [RAMEA] |  |  | Neither RAMEA nor RAMEG could solubilize cholesterol to a measurable extent
 |  |  |  |  |  | CC/C=C\C/C=C\C/C=C\CCCCCCCC(=O)O [ALA, α-linoleic acid] |  | solubilization method did not influence the effects | 
 | 0.43 | 0.08 | 0.35 | solubilized | 0.41 | randomly methylated β-cyclodextrin [RAMEB] |  |  | cholesterol could be dissolved by RAMEB only
